Results: patent US20070259935A1, “CRYSTALLINE FORMS OF LETROZOLE AND PROCESSES FOR MAKING THEM” (priority 2006, published 2007)
Entries after “also recorded” stand apart in the source; their conditions may differ.

Assays:
[1] = cited from earlier work
[2] = Crystal form conversion during annealing; format: physicochemical; conditions: annealing above 140° C.
[3] = Relative stability of the crystalline forms (cooling rate observations in toluene); format: physicochemical; conditions: concluded from slow versus faster cooling in toluene and the conversion observations
Excerpt: Slow cooling a solution of letrozole in toluene gave mainly Form I, whereas faster cooling a solution in toluene gave Form II.
Indeed, due to the relative instability of Form II, the use of Form II or a mixture of Forms I and II could be liable to conversion during storage to form some or more Form I, respectively. Such a variation in crystalline form is generally undesirable in pharmaceuticals as the different forms can have different properties, e.g. bio-absorption, solubility, degradation, etc. Thus, while the use of either crystalline form in a pharmaceutical composition is contemplated, making the composition from a crystalline letrozole that has an XRPD substantially corresponding to FIG. 1 is preferred.

[4] = Crystal form conversion on stirring in solvent; format: physicochemical

## N#Cc1ccc(C(c2ccc(C#N)cc2)n2cncn2)cc1 [Letrozole, 4,4′-(H-1,2,4-Triazol-1-ylmethylene)dibenzonitrile]
[1]; dichloromethane
  solubility in dichloromethane: freely soluble
[1]; ethanol
  solubility in ethanol: slightly
[1]; water
  solubility in water: practically insoluble

## N#Cc1ccc(C(c2ccc(C#N)cc2)n2cncn2)cc1 [Form II, 4,4′-(H-1,2,4-Triazol-1-ylmethylene)dibenzonitrile]
[2]
  conversion of crystalline form during annealing: (partially) converted into form I
[3]
  kinetic versus thermodynamic form / relative stability: kinetic form; also recorded: generally less stable than the Form I
[4]; stirred in ethanol at room temperature
  conversion of crystalline form when stirred in ethanol: (partially) converted into Form I

## N#Cc1ccc(C(c2ccc(C#N)cc2)n2cncn2)cc1 [Form I, 4,4′-(H-1,2,4-Triazol-1-ylmethylene)dibenzonitrile]
[2]
  conversion of crystalline form during annealing: does not convert
[3]
  kinetic versus thermodynamic form / relative stability: thermodynamically stable form
[4]; stirred in a solvent for 2 weeks
  conversion of crystalline form when stirred in a solvent for 2 weeks: does not convert into Form II
[4]; stirred in various solvents
  conversion of crystalline form when stirred in various solvents: does not convert
